Columns and labels:
[1] = system: HeLa (cervical cancer); test: MTT in vitro cytotoxicity assay, HeLa; assay type: cell-based, human; conditions: Homo sapiens
Procedure: The synthesized compounds were evaluated for in-vitro cytotoxic activity against various cell lines such as HeLa (cervical cancer), MCF-7 (breast cancer), HL-60 (Human promyelocytic leukemia), HepG2 (Hepatocellular carcinoma) and MCF 12A (normal epithelial cell) by the MTT assay method. […] The relationship between surviving fraction and drug concentration was plotted to obtain the survival curve of all the cancer cell lines HeLa, MCF-7, HL-60 and HepG2. The response parameter calculated was the IC50 values, which responds to the concentration required for 50% inhibition of cell viability. The in-vitro cytotoxic activity of the synthesized compounds is summarized Table 3.
The target compounds were subjected to in vitro cytotoxicity bioassay. In vitro cytotoxicity was determined using a standard MTT assay with protocol appropriate for the individual test system[29]–[31]. The four human cancer cell lines HeLa, MCF-7, HL-60, HepG2 and MCF-12A were cultured in the MEM medium supplemented with 10% FBS, 1% glutamine and […] gentamicin sulfate in a CO2 incubator in a humidified atmosphere of 5% CO2 and 95% air. The test compounds were prepared prior to the experiment by dissolving in 0.1% DMSO and diluted with medium. The cells were then exposed to different concentrations of drugs ([…]) in the volume of […]. Cells in the control wells received the same volume of medium containing 0.1% DMSO. After 24 h, the medium was removed and cell cultures were incubated with […] MTT reagent (1 mg/ml) for 5 h at 37 °C. The known number of cells ([…]) was incubated in a 5% CO2 incubator at 37 °C in the presence of different concentrations of test compounds. After 48 h of drug incubation, the MTT solution was added in each well and absorbance was recorded at 540 nm by an ELISA reader. The experiment was performed in triplicate. Cell survival was calculated as the percentage of MTT inhibition as % growth inhibition = 100 − (mean OD of individual test Group/Mean OD of each Control Group) × 100.

[2] = biological target: T1, EGFR-TK (Homo sapiens, UniProt P00533); test: EGFR tyrosine kinase inhibitory activity (Kinase-Glo Plus luminescence); assay type: biochemical; conditions: at 10 µM; read-out: Percent of Inhibition, EGFR tyrosine kinase
T1 construct: 0.2 mg/mL Poly (Glu, Tyr) substrate, 10 mM ATP and EGFR
T1 sequence (P00533 25-1210): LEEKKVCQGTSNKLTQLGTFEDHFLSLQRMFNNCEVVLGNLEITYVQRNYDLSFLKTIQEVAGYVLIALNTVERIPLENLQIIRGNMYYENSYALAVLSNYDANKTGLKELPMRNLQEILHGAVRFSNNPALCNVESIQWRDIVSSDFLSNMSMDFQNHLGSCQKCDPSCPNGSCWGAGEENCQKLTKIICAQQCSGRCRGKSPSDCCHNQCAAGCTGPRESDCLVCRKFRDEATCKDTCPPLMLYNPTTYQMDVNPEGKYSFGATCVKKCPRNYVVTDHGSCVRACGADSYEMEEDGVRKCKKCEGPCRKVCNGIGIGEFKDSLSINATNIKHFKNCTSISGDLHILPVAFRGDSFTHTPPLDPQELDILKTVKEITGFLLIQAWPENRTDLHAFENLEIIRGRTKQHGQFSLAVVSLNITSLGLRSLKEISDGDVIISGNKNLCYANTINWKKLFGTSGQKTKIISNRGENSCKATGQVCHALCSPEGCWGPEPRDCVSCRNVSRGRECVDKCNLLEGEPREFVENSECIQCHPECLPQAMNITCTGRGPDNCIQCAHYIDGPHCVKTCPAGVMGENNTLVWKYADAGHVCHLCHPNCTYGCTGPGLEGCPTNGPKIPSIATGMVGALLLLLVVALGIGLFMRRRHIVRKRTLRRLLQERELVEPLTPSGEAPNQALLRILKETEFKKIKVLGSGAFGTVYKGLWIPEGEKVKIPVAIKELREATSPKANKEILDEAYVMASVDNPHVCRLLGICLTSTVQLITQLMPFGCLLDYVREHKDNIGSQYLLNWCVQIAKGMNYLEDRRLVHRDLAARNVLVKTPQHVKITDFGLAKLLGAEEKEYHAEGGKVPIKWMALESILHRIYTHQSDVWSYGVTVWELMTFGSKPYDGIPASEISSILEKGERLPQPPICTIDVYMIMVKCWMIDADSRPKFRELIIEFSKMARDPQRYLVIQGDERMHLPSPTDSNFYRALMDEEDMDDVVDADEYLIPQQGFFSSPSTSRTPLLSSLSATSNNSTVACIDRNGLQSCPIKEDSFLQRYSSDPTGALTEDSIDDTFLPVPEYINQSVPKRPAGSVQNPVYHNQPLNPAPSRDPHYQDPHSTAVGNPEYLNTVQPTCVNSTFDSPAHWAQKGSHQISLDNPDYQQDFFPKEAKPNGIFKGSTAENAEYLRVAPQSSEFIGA
Procedure: Kinase activity was determined using Kinase-Glo Plus luminescence kinase assay kit, by quantitating the amount of ATP remaining in the solution of kinase reaction. The luminescent signal is correlated with the residual amount present and it was inversely related with kinase activity. The tested compounds were diluted to 100 mM in 10% DMSO, then […] of the dilution was added to a 50 mL reaction. All of the enzymatic reactions were performed at 30 °C for 40 min, 50 mL of reaction mixture contains 10 mM MgCl2, 40 mM Tris, pH 7.4, 0.1 mg/mL BSA, 0.2 mg/mL Poly (Glu, Tyr) substrate, 10 mM ATP and EGFR. Incubate the plate for 5 min at r.t. then add 50 mL of Kinase-GloPlus Luminescence kinase assay to each reaction. ADP-Glo assay kit is the protein kinase assays used to determine IC50 values in which ADP generation was measured as it leads to an increase in luminescence signal. The reaction mixture was incubated in a 96-well plate at 30 °C for 30 min, after the incubation period add 25 mL of ADP-Glo reagent to terminate the assay. Shake the 96-well plate for 30 min at ambient temperature then incubate it, then add 50 mL of kinase detection reagent. Read the 96-well plate using the ADP-Glo Luminescence reader. All the assay components were added to the blank control except the substrate. By removing the blank control value you can obtain the corrected activity for each protein kinase target.

[3] = system: p-EGFR and p-Akt levels of MCF-7; test: Western blot of EGFR activation and downstream signalling in MCF-7; assay type: cell-based, human; conditions: immunoblotting, concentration-dependent
Excerpt: However, despite of excellent inhibitory activity of 7l against the EGFR-TK, its mechanism behind this phenomena has not been elucidate till now, thus, in this part of the study, we are interested in exploring the effect of compound 7l on the activation and downstream signalling pathway of the EGFR. Towards this, the effect of 7l has been determined on the expression of p-EGFR and EGFR, p-Akt and Akt levels of MCF-7 by immunoblotting experiments. Results as presented in Fig. 14 confirmed the effect of 7l on the expression of p-EGFR and p-Akt. […] Results clearly indicate the ability of 7l to inhibit the phosphorylation of EGFR which in turn decreases Akt (the downstream target protein of p-EGFR).
After incubation with the test compound, the cells were harvested and washed with PBS, and then lysed in lysis buffer. After centrifugation at 12,000 × g for 5 min, the supernatant was collected as total protein. The concentration of the protein was determined by a protein assay kit. The protein samples were separated by 10% SDS–PAGE and subsequently electro-transferred onto a PVDF (Millipore, Bedford, MA, USA). […] The antibodies were purchased from Cell Signaling Technology (MA, USA) Thus, the expression of p-EGFR, EGFR, p-Akt (pS473) and Akt were visualized by enhanced chemiluminescence (ECL) (Thermofischer Scientific Inc. USA) kit and band intensity was analyzed by image j software.

- inhibition at 10 µM [2]: 96.4%
Structure (SMILES): CCOC(=O)C1=C(C)N(c2nc(Nc3cccc(F)c3)nc(Nc3cccc(F)c3)n2)C(=S)NC1c1ccc(F)cc1 (stereo not shown) [7l, Ethyl 1-(4,6-bis((3-fluorophenyl)amino)-1,3,5-triazin-2-yl)-4-(4-fluorophenyl)-6-methyl-2-thioxo-1,2,3,4-tetrahydropyrimidine-5-carboxylate]
- IC50 [1]: 39.7 ± 0.81 µM
- Level of p-Akt [3]: significantly reduced
- Level of p-EGFR [3]: significantly reduced

From publication PMC5517562, “Design and discovery of novel monastrol-1,3,5-triazines as potent anti-breast cancer agent via attenuating Epidermal Growth Factor Receptor tyrosine kinase” (Scientific Reports, 2017)
